IC50 data for nine compounds are collected here from patent US20260042764A1, “COMPOSITIONS AND METHODS FOR INHIBITION OF KRAS” (TheRas, Inc., priority 2022, published 2026).

The structures appear in SMILES notation.

In test [1] the target is T1, Avi-KRAS G12R (1-169) GppNHp/RAF1 RBD-3xFLAG (52-151) (Homo sapiens, UniProt P01116, G12R).
T1 construct: Avi-KRAS G12R (1-169)
As to the kind of experiment: Raf1-KRAS G12R-GppNHP disruption HTRF assay (Biological Example 1). The test is classed as binding. Summed up: (§1)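 Compounds were tested for disruption of KRAS–RAF1 RBD binding by HTRF in 50 mM Tris pH 7.5, 100 mM NaCl, 5 mM MgCl2, 0.1% BSA, 0.01% Tween, 10% DMSO. Protein mix was incubated 1 h at room temperature with shaking, then detection reagents added for another 1 h. Activity expressed as percent of DMSO control.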

A further test deals with SW620 cells (KRAS G12V). In words: Cell-based pERK HTRF assay in SW620 cell (Biological Example 4). The conditions noted are these: pERK HTRF. In short, it runs like this:
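SW620 cells were treated for 4 h with compound in a 9-point half-log series from 1 μM top (0.25% DMSO), then lysed. Phospho-ERK was detected by HTRF with d2 and Eu cryptate antibodies after 4–24 h at room temperature, read at 615 nm emission.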

In test [2] the target is T2, Avi-KRAS G12V (1-169) GppNHp/RAF1 RBD-3xFLAG (52-151) (Homo sapiens, UniProt P01116, G12V).
T2 construct: Avi-KRAS G12V (1-169)
T2 sequence (P01116 1-169 isoform P01116-2 G12V): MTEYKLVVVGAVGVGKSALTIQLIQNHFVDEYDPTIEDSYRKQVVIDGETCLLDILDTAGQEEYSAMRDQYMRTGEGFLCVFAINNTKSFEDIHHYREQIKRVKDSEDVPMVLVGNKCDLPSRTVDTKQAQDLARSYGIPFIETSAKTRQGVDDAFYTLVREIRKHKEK
As to the kind of experiment: Raf1-KRAS G12V-GppNHP disruption HTRF assay (Biological Example 1). It counts as binding. In short, it runs like this:
as §1

For another test, the system named is GP2d cells (KRAS G12D). As to the kind of experiment: Cell-based pERK HTRF assay in GP2d cell (Biological Example 2). As to conditions: GP2d (KRAS G12D) cells, pERK HTRF. In short, it runs like this:
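HTRF read-out of pERK (excitation 320 nm, emission 615 nm) after lysates sat 4–24 h at room temperature with Eu cryptate and d2 antibodies.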

For test [3], the target named is T3, Avi-KRAS G12D (1-169) GppNHp/RAF1 RBD-3xFLAG (52-151) (Homo sapiens, UniProt P01116, G12D).
T3 construct: Avi-KRAS G12D (1-169)
T3 sequence (P01116 1-169 isoform P01116-2 G12D): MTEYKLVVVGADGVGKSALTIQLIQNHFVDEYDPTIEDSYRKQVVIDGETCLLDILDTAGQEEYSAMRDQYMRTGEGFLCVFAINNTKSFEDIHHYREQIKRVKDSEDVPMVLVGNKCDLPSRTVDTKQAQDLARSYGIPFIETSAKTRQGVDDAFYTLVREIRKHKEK
In words: Raf1-KRAS G12D-GppNHP disruption HTRF assay (Biological Example 1). It counts as binding. In short, it runs like this: as §1

Test [4] addresses T4, Avi-KRAS WT (1-169) GppNHp/RAF1 RBD-3xFLAG (52-151) (Homo sapiens, UniProt P01116).
T4 construct: Avi-KRAS WT (1-169)
In words: Raf1-KRAS WT-GppNHP disruption HTRF assay (Biological Example 1). It counts as binding. In short, it runs like this:
as §1

[5] abbreviates: KRAS G12R, GppNHp-loaded, Table 11.
[6] abbreviates: Homo sapiens, SW-620, SW620 (KRAS G12V) cells.
The mark [7] stands for this setting: KRAS G12V, GppNHp-loaded, Table 11.
The mark [8] stands for this setting: KRAS G12D, GppNHp-loaded, Table 11.
[9] abbreviates: KRAS WT, GppNHp-loaded, Table 11.
Setting [10] is: KRAS G12R, GppNHp-loaded, class symbols.
The mark [11] stands for this setting: Homo sapiens, SW-620, SW620 (KRAS G12V) cells, class symbols.
[12] abbreviates: KRAS G12V, GppNHp-loaded, class symbols.
Where [13] appears, read: KRAS G12D, GppNHp-loaded, class symbols.
Setting [14] is: KRAS WT, GppNHp-loaded, class symbols.

T1 sequence (P01116 1-169 isoform P01116-2 G12R): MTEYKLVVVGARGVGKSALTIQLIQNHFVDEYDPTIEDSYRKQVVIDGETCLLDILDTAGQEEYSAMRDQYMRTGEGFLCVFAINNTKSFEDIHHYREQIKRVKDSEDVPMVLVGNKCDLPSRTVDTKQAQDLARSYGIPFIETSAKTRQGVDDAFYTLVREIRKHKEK
T4 sequence (P01116 1-169 isoform P01116-2): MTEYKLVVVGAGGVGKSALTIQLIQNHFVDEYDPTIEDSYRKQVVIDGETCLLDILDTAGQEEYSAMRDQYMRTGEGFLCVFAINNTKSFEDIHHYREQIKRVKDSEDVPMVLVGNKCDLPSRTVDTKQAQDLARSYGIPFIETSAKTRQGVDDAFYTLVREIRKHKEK

Consider `C[C@]1(O)CCCN(c2nc(OC[C@@]34CCCN3C[C@H](F)C4)nc3c(F)c(-c4ccc(F)c5sc(N)c(C#N)c45)c(C(F)(F)F)cc23)C1` [Compound 241], for which the IC50 in test [1] (setting [5]) is 100 to 1000 nM; in the test with SW620 cells (KRAS G12V) (setting [6]) it was less than 100 nM; in test [2] (setting [7]), 100 to 1000 nM; in the test on GP2d cells (KRAS G12D) (GP2d), less than 100 nM; in test [3] (setting [8]), 100 to 1000 nM; in test [4] (setting [9]) it was 100 to 1000 nM.

For the compound `N#Cc1c(N)sc2c(F)ccc(-c3c(C(F)(F)F)cc4c(N5CCc6cn[nH]c6C5)nc(OC[C@@]56CCCN5C[C@H](F)C6)nc4c3F)c12` [Compound 354], the IC50 in test [1] (KRAS G12R-GppNHp/RAF1 RBD HTRF) was 1000 to 10000 nM; in the test with SW620 cells (KRAS G12V) (setting [6]), less than 100 nM; in test [2] (KRAS G12V-GppNHp/RAF1 RBD HTRF), more than 10000 nM; in the test on GP2d cells (KRAS G12D) (GP2d), 100 to 1000 nM; in test [3] (KRAS G12D-GppNHp/RAF1 RBD HTRF), 1000 to 10000 nM; in test [4] (KRAS WT-GppNHp/RAF1 RBD HTRF), 1000 to 10000 nM.

`CCN(c1nc(OC[C@@]23CCCN2C[C@H](F)C3)nc2c(F)c(-c3ccc(F)c4sc(N)c(C#N)c34)c(C(F)(F)F)cc12)[C@H]1CCN(C(=O)N(C)C(C)C)C1` (atropisomer, axis not shown) [Compound 585]: the IC50 in test [1] (setting [10]) is less than 100 nM; in the test on SW620 cells (KRAS G12V) (setting [11]), less than 100 nM; in test [2] (setting [12]), less than 100 nM; in the test with GP2d cells (KRAS G12D) (GP2d, class symbols), less than 100 nM; in test [3] (setting [13]), less than 100 nM; in test [4] (setting [14]) it was less than 100 nM.

With `CC(C)C(=O)N1CC[C@H](N(C)c2nc(OC[C@@]34CCCN3C[C@H](F)C4)nc3c(F)c(-c4ccc(F)c5sc(N)c(C#N)c45)c(C(F)(F)F)cc23)C1` (atropisomer, axis not shown) [Compound 786], the half-maximal inhibitory concentration (IC50) in test [1] (setting [10]) is less than 100 nM; in the test with SW620 cells (KRAS G12V) (setting [11]), less than 100 nM; in test [2] (setting [12]), 100 to 1000 nM; with GP2d cells (KRAS G12D) (GP2d, class symbols), less than 100 nM; in test [3] (setting [13]), less than 100 nM; in test [4] (setting [14]) it was 100 to 1000 nM.

In the case of `CC(=O)N1CC[C@H](N(C)c2nc(OC[C@@]34CCCN3C[C@H](F)C4)nc3c(F)c(-c4ccc(F)c5sc(N)c(C#N)c45)c(C(F)(F)F)cc23)[C@@H]1C` (single isomer, unassigned) [Compound 195], the IC50 in test [1] (setting [5]) fell in the range of 1000 to 10000 nM; with SW620 cells (KRAS G12V) (SW620 (KRAS G12V) cells), 100 to 1000 nM; in test [2] (setting [7]), 1000 to 10000 nM; in the test with GP2d cells (KRAS G12D) it was 100 to 1000 nM; in test [3] (setting [8]), 1000 to 10000 nM; in test [4] (setting [9]), 1000 to 10000 nM.

`C[C@@H]1[C@H](N(C)c2nc(OC[C@@]34CCCN3C[C@H](F)C4)nc3c(F)c(-c4ccc(F)c5sc(N)c(C#N)c45)c(C(F)(F)F)cc23)CCN1C(=O)C(C)(C)F` [Compound 424]: the IC50 was 100 to 1000 nM in test [1] (KRAS G12R-GppNHp/RAF1 RBD HTRF); 100 to 1000 nM with SW620 cells (KRAS G12V) (setting [6]); 1000 to 10000 nM in test [2] (KRAS G12V-GppNHp/RAF1 RBD HTRF); less than 100 nM in the test with GP2d cells (KRAS G12D) (GP2d); 100 to 1000 nM in test [3] (KRAS G12D-GppNHp/RAF1 RBD HTRF); 100 to 1000 nM in test [4] (KRAS WT-GppNHp/RAF1 RBD HTRF).

Take `CCN(c1nc(OC[C@@]23CCCN2C[C@H](F)C3)nc2c(F)c(-c3ccc(F)c4sc(N)c(C#N)c34)c(C(F)(F)F)cc12)[C@H]1CCN(C(=O)c2cncnc2)C1` (atropisomer, axis not shown) [Compound 727]: the IC50 in test [1] (setting [10]) was less than 100 nM; in the test with SW620 cells (KRAS G12V) (setting [11]) it was less than 100 nM; in test [2] (setting [12]) it was 100 to 1000 nM; with GP2d cells (KRAS G12D) (GP2d, class symbols) it was less than 100 nM; in test [3] (setting [13]), less than 100 nM; in test [4] (setting [14]), 100 to 1000 nM.

As to `CC(=O)N1C[C@@H](N(C)c2nc(OC[C@@]34CCCN3C[C@H](F)C4)nc3c(F)c(-c4ccc(F)c5sc(N)c(C#N)c45)c(C(F)(F)F)cc23)C[C@H]1CO` [Compound 247], the IC50 in test [1] (setting [5]) was 100 to 1000 nM; with SW620 cells (KRAS G12V) (setting [6]), 100 to 1000 nM; in test [2] (setting [7]), 100 to 1000 nM; with GP2d cells (KRAS G12D) (GP2d), less than 100 nM; in test [3] (setting [8]), 100 to 1000 nM; in test [4] (setting [9]), 100 to 1000 nM.

As to `CC(=O)N1C[C@@H]2CC[C@H]1CN2c1nc(OC[C@@]23CCCN2C[C@H](F)C3)nc2c(F)c(-c3ccc(F)c4sc(N)c(C#N)c34)c(C(F)(F)F)cc12` [Compound 455], the IC50 was 100 to 1000 nM in test [1] (KRAS G12R-GppNHp/RAF1 RBD HTRF); 100 to 1000 nM in the test with SW620 cells (KRAS G12V) (setting [6]); 1000 to 10000 nM in test [2] (KRAS G12V-GppNHp/RAF1 RBD HTRF); less than 100 nM in the test with GP2d cells (KRAS G12D) (GP2d); 100 to 1000 nM in test [3] (KRAS G12D-GppNHp/RAF1 RBD HTRF); 100 to 1000 nM in test [4] (KRAS WT-GppNHp/RAF1 RBD HTRF).
